Test results published in patent US7510836B2, “Alpha arteether resistance domain” (priority 2003, dated 2009).

Legend:
E. coli DH5α = experiment: Phenotype of strain (resistance or sensitivity); type: cell-based, Escherichia coli; set-up: key to Phenotype: R: resistance; S: sensitivity; settings: for Sensitivity or resistance of the strain (words): E.coli DH5a (gyrA 96; Asp87Asn)
Procedure: (§1) As a result of this mutation, the said strain is also resistant to a drug called nalidixic acid.
(§2) To ascertain the involvement of gyrA mutation, another E.coli strain NK 5819 which is also GyrA″ and nalidixic acid resistant was tested for arteether sensitivity. As expected, strain NK5819 was also sensitive only to a-isomer of arteether. […] The assays for arteether sensitivity was performed by the standard single disk diffusion method (Bauer et al, 1966). As a next step, we isolated gyrA mutants of E.coli strain CA 8000, which is otherwise Gyr+ and nalidixic acid sensitive. The gyrA mutants of CA8000 were isolated as nalidixic acid resistant colonies (20 ug/ml), after mutagenic treatment with NTG ([…]). The isolated CA8000 gyrA mutants were also sensitive only to a isomer of arteether. […] To define precisely the involvement of gyr genes only in the a-arteether sensitivity, we utilised two recombinant clones (pMK 90 and pMK47 containing functional gyr A and gyrB genes respectively) in trans-complementation assays. For this purpose, we mobilized the plasmid clones into the E.coli gyr mutant strains. The resulting transformants were now nalidixic acid sensitive and a-arteether resistant. This constituted the direct evidence supporting our observation that DNA gyrase enzyme alone is involved in conferring a-arteether sensitivity to E.coli strain. […] DNA gyrase enzyme is essential for the bacterial growth. This enzyme transiently breaks the DNA strands and introduces negative superhelical turns in an ATP-dependent process. The E.coli DNA gyrase enzyme is a tetramer with two subunits A and B. These two subunits are nalidixic acid and coumermycin sensitive respectively (U.S. Pat. No. 6,127,405 and a co-pending patent).
(§3) The strains of E coli of the investigation, their phenotypes in terms of a-arteether (resistance or sensitivity, superscript R or S) or antibiotic resistance or sensitivity, change in nucleotide position of the gyrase A gene leading to the phenotype, corresponding amino acid change in the protein and the position of amino acid change are being described. Always the phenotype a-arteether resistance is accompanied with quinolone or fluoroquinolone sensitivity and vice versa.

E. coli ET8000 = experiment: Phenotype of strain (resistance or sensitivity); type: cell-based, Escherichia coli; set-up: key: R: resistance; S: sensitivity; settings: gyrA GAC-AAC(259), Asp-Asn 87
Description: as §3

E. coli NK5819 = experiment: Phenotype of strain (resistance or sensitivity); type: cell-based, Escherichia coli; set-up: key to Phenotype: R: resistance; S: sensitivity
Procedure: as §2, §3

E. coli CA8001 = experiment: Phenotype of strain (resistance or sensitivity); type: cell-based, Escherichia coli; set-up: key: R: resistance; S: sensitivity; settings: gyrA GGT-TGT(241), Gly-Cys 81
Description: (§4) In order to develop an arteether resistant mutants from an arteether sensitive strains a reverse strategy was applied. Quinoline/fluoroquinolone (Q/FQs) resistant strains were developed spontaneously i.e. screening overnight log phase culture of the Quinolone/fluoroquinolone sensitive i.e. arteether resistant strain (E coli CA 8000) on the poison agar plate of the Q/FQs. The Q/FQ resistant mutants which appeared on the poison agar plates were first purified through single colony purification and then checked for their arteether sensitivity. These arteether sensitive mutants on the contrary when checked for their Q/Fqs resistance they show different level of Q/FQs resistance.
as §3

E. coli CA8002 = experiment: Phenotype of strain (resistance or sensitivity); type: cell-based, Escherichia coli; set-up: key: R: resistance; S: sensitivity; settings: gyrA GGT-TGT(241), Gly-Cys 81
Description: as §4, §3

E. coli CA8003 = experiment: Phenotype of strain (resistance or sensitivity); type: cell-based, Escherichia coli; set-up: key: R: resistance; S: sensitivity; settings: gyrA GAC-GGC(260), Asp-Gly 87
Description: as §4, §3

E. coli CA8005 = experiment: Phenotype of strain (resistance or sensitivity); type: cell-based, Escherichia coli; set-up: key: R: resistance; S: sensitivity; settings: gyrA GAC-GGC(260), Asp-Gly 87
Description: as §4, §3

E. coli CA8006 = experiment: Phenotype of strain (resistance or sensitivity); type: cell-based, Escherichia coli; set-up: key: R: resistance; S: sensitivity; settings: gyrA TCG-TTG(248), Ser-Leu 83
Description: as §4, §3

E. coli CA8007 = experiment: Phenotype of strain (resistance or sensitivity); type: cell-based, Escherichia coli; set-up: key: R: resistance; S: sensitivity; settings: gyrA TCG-TTG(248), Ser-Leu 83
Description: as §4, §3

E. coli CA8009 = experiment: Phenotype of strain (resistance or sensitivity); type: cell-based, Escherichia coli; set-up: key: R: resistance; S: sensitivity; settings: gyrA TCG-TTG(248), Ser-Leu 83
Description: as §4, §3

E. coli CA8010 = experiment: Phenotype of strain (resistance or sensitivity); type: cell-based, Escherichia coli; set-up: key: R: resistance; S: sensitivity; settings: gyrA TCG-TTG(248), Ser-Leu 83
Description: as §4, §3

E. coli CA8012 = experiment: Phenotype of strain (resistance or sensitivity); type: cell-based, Escherichia coli; set-up: key: R: resistance; S: sensitivity; settings: gyrA GGT-GAT(242), Gly-Asp 81
Description: as §4, §3

[1] = system: E. coli mutant strain AR 9 CA8014; experiment: Phenotype of revertant (resistance or sensitivity); type: cell-based, Escherichia coli; set-up: key: R: resistance; S: sensitivity; settings: gyrA AAC-GAC(259), Asn-Asp 87
Description: as §3
(§5) The commercially available strain E. coli DH5[…] (Stratagene, USA) is sensitive to […]-arteether but resistant to quinolone/fluoroquinolone due to a mutation at 87th aminoacid position of the gyr A protein (Aspartic acid of wild type is changed to Aspargine) with corresponding change in the codon GAC to AAC. This strain was used to screen […]-arteether resistant mutations. The observation was startling as the […]-arteether resistant mutants are the exact reversion at the 87th position of the aminoacid of gyrase A subunit i.e. Aspargine changed to aspartic acid, with corresponding change in the codon AAC to GAC.

[2] = system: E. coli mutant strain Rev 4; experiment: Phenotype of revertant (resistance or sensitivity); type: cell-based, Escherichia coli; set-up: key: R: resistance; S: sensitivity; settings: gyrA GAT-GGT(242), Asp-Gly 81
Description: as §3, §5

[3] = system: E. coli mutant strain Rev 5; experiment: Phenotype of revertant (resistance or sensitivity); type: cell-based, Escherichia coli; set-up: key: R: resistance; S: sensitivity; settings: gyrA GAT-GGT(242), Asp-Gly 81
Description: as §3, §5

[4] = system: E. coli mutant strain Rev 6; experiment: Phenotype of revertant (resistance or sensitivity); type: cell-based, Escherichia coli; set-up: key: R: resistance; S: sensitivity; settings: gyrA GAT-GGT(242), Asp-Gly 81
Description: as §3, §5

[5] = system: E. coli mutant strain Rev. 1; experiment: Phenotype of revertant (resistance or sensitivity); type: cell-based, Escherichia coli; set-up: key: R: resistance; S: sensitivity; settings: gyrA GAT-GGT(242), Asp-Gly 81
Description: as §3, §5

[6] = system: E. coli mutant strain Rev. 2; experiment: Phenotype of revertant (resistance or sensitivity); type: cell-based, Escherichia coli; set-up: key: R: resistance; S: sensitivity; settings: gyrA GAT-GGT(242), Asp-Gly 81
Description: as §3, §5

[7] = system: E. coli mutant strain Rev. 3; experiment: Phenotype of revertant (resistance or sensitivity); type: cell-based, Escherichia coli; set-up: key: R: resistance; S: sensitivity; settings: gyrA GAT-GGT(242), Asp-Gly 81
Description: as §3, §5

[8] = system: E.coli strain MTCC 482 (GyrB, defective in DNA gyrase B subunit); experiment: Arteether sensitivity, single disk diffusion; type: cell-based, Escherichia coli; settings: E.coli MTCC 482 (gyrB)
Procedure: as §2, with “This enzyme transiently breaks the DNA strands and introduces negative superhelical turns in an ATP-dependent process. The E.coli DNA gyrase enzyme is a tetramer with two subunits A and B. These two subunits are nalidixic acid and coumermycin sensitive respectively (U.S. Pat. No. 6,127,405 and a co-pending patent).” left out

[9] = system: gyrA mutants of E.coli strain CA 8000 (nalidixic acid resistant colonies after NTG); experiment: Arteether sensitivity, single disk diffusion; type: cell-based, Escherichia coli; settings: isolated CA8000 gyrA mutants
Procedure: as §2, with “This enzyme transiently breaks the DNA strands and introduces negative superhelical turns in an ATP-dependent process. The E.coli DNA gyrase enzyme is a tetramer with two subunits A and B. These two subunits are nalidixic acid and coumermycin sensitive respectively (U.S. Pat. No. 6,127,405 and a co-pending patent).” left out

[10] = system: E.coli gyr mutant strains transformed with pMK 90 and pMK47 (functional gyr A and gyrB genes); experiment: Trans-complementation assay; type: cell-based, Escherichia coli; settings: gyr mutant strains carrying pMK 90 / pMK47
Procedure: as §2, with “This enzyme transiently breaks the DNA strands and introduces negative superhelical turns in an ATP-dependent process. The E.coli DNA gyrase enzyme is a tetramer with two subunits A and B. These two subunits are nalidixic acid and coumermycin sensitive respectively (U.S. Pat. No. 6,127,405 and a co-pending patent).” left out

[11] = system: E.coli strains which do not carry gyr mutation (wild type strains); experiment: Arteether sensitivity of strains without gyr mutation; type: cell-based, Escherichia coli
Procedure: as §1
To ascertain the involvement of gyrA mutation, another E.coli strain NK 5819 which is also GyrA″ and nalidixic acid resistant was tested for arteether sensitivity. As expected, strain NK5819 was also sensitive only to a-isomer of arteether. […] The assays for arteether sensitivity was performed by the standard single disk diffusion method (Bauer et al, 1966). As a next step, we isolated gyrA mutants of E.coli strain CA 8000, which is otherwise Gyr+ and nalidixic acid sensitive. The gyrA mutants of CA8000 were isolated as nalidixic acid resistant colonies (20 ug/ml), after mutagenic treatment with NTG ([…]). The isolated CA8000 gyrA mutants were also sensitive only to a isomer of arteether. […] To define precisely the involvement of gyr genes only in the a-arteether sensitivity, we utilised two recombinant clones (pMK 90 and pMK47 containing functional gyr A and gyrB genes respectively) in trans-complementation assays. For this purpose, we mobilized the plasmid clones into the E.coli gyr mutant strains. The resulting transformants were now nalidixic acid sensitive and a-arteether resistant. This constituted the direct evidence supporting our observation that DNA gyrase enzyme alone is involved in conferring a-arteether sensitivity to E.coli strain. […]

[12] = system: E.coli strains which do not carry gyr mutation (wild type strains); settings: U.S. Pat. No. 6,127,405; cited from earlier work
[13] = system: gyr mutant strains of E.coli; settings: U.S. Pat. No. 6,127,405; cited from earlier work

Which Phenotype (E. coli DH5α; DH5α, gyrA GAC-AAC(259), Asp-Asn 87) does the source give for `CCO[C@@H]1O[C@@H]2O[C@]3(C)CC[C@H]4[C@H](C)CC[C@@H]([C@H]1C)[C@@]24OO3` [a-arteether, α-arteether] here?
The Phenotype was “S”.

And the “Sensitivity or resistance of the strain (words)” value (E. coli DH5α; listed as a isomer of arteether)?
The value was “able to inhibit the growth”.

And the “Sensitivity or resistance of the strain (words)” value (E. coli DH5α; listed as α-arteether)?
The value was “sensitive”.

What about the “Sensitivity or resistance of the strain (words)” value (E. coli DH5α; listed as […]-arteether) of the same molecule?
Its value is “sensitive”.

What about the Phenotype (E. coli ET8000) of the same molecule?
The Phenotype was “S”.

What about the “Sensitivity or resistance of the strain (words)” value (E. coli NK5819; E.coli NK 5819 (GyrA mutant)) of the same molecule?
The value was “sensitive”.

And the Phenotype (E. coli NK5819; NK5819, gyrA GAC-TAC(259), Asp-Gly 87)?
Its Phenotype is “S”.

What about the Phenotype (E. coli CA8001) of the same molecule?
Its Phenotype is “S”.

What about the Phenotype (E. coli CA8002) of the same molecule?
The Phenotype was “S”.

And the Phenotype (E. coli CA8003)?
Its Phenotype is “S”.

And the Phenotype (E. coli CA8005)?
The Phenotype was “S”.

And the Phenotype (E. coli CA8006)?
The Phenotype was “S”.

And the Phenotype (E. coli CA8007)?
The Phenotype was “S”.

What about the Phenotype (E. coli CA8009) of the same molecule?
Its Phenotype is “S”.

What about the Phenotype (E. coli CA8010) of the same molecule?
The Phenotype was “S”.

What about the Phenotype (E. coli CA8012) of the same molecule?
Its Phenotype is “S”.

What about the Phenotype [1] of the same molecule?
Its Phenotype is “R”.

And the Phenotype [2]?
Its Phenotype is “R”.

What about the Phenotype [3] of the same molecule?
Its Phenotype is “R”.

What about the Phenotype [4] of the same molecule?
Its Phenotype is “R”.

And the Phenotype [5]?
The Phenotype was “R”.

And the Phenotype [6]?
The Phenotype was “R”.

And the Phenotype [7]?
Its Phenotype is “R”.

And the “Arteether sensitivity” value [8]?
Its value is “susceptible”.

And the “Arteether sensitivity” value [9]?
Its value is “sensitive”.

And the “Sensitivity or resistance of transformants” value [10]?
The value was “resistant”.

What about the “Sensitivity or resistance” value [11] of the same molecule?
The value was “invariably resistant”.

What about the “Inhibitory activity” value [12] of the same molecule?
Its value is “ineffective”.

What about the “Inhibitory activity” value [13] of the same molecule?
The value was “inhibitory”.
